Measured values published in BigSolDB 2.1.

c1ccc2c(c1)oc1ccccc12
solubility (mole fraction)
Details	in diisopropyl ether	in ethanol	in ethyl acetate	in n-butanol	in tetrachloromethane	in toluene
283.15 K	0.0838	0.0211	0.145	0.0281	0.134	0.158
288.15 K	0.104	0.0271	0.168	0.0326	0.161	0.185
293.15 K	0.13	0.0322	0.199	0.0421	0.191	0.223
298.15 K	0.155	0.0414	0.232	0.0531	0.216	0.266
303.15 K	0.183	0.0489	0.269	0.0671	0.264	0.301
308.15 K	0.237	0.0707	0.328	0.0877	0.307	0.344
313.15 K	0.284	0.102	0.387	0.107	0.354	0.399
318.15 K	0.341	0.134	0.441	0.166	0.412	0.455
323.15 K	0.412	0.197	0.502	0.23	0.491	0.514
328.15 K	0.508	0.283	0.565	0.364	0.548	0.582
333.15 K	0.58	0.334	0.625	0.514	0.635	0.624

O=C1c2ccccc2-c2ccccc21
solubility (mole fraction)
Details	in diisopropyl ether	in ethanol	in ethyl acetate	in n-butanol	in tetrachloromethane	in toluene
283.15 K	0.0297	0.0209	0.123	0.0267	0.114	0.12
288.15 K	0.0356	0.0241	0.142	0.0321	0.142	0.142
293.15 K	0.0426	0.0301	0.173	0.0402	0.158	0.164
298.15 K	0.0541	0.043	0.221	0.0498	0.192	0.197
303.15 K	0.0642	0.0562	0.244	0.0685	0.241	0.228
308.15 K	0.0815	0.0976	0.284	0.0848	0.291	0.264
313.15 K	0.108	0.144	0.335	0.126	0.347	0.315
318.15 K	0.137	0.207	0.395	0.162	0.403	0.371
323.15 K	0.18	0.292	0.465	0.236	0.462	0.41
328.15 K	0.228	0.409	0.548	0.311	0.519	0.485
333.15 K	0.309	0.548	0.63	0.4	0.582	0.55
